Assays:
5-HT3A receptors = target: T1, 5-HT3A receptors (Homo sapiens, UniProt P46098); assay type: cell-based
T1 construct: expressed in transfected cells; host or cells: Xenopus oocytes injected with cRNA (pGEMHE)
T1 sequence (P46098 24-478): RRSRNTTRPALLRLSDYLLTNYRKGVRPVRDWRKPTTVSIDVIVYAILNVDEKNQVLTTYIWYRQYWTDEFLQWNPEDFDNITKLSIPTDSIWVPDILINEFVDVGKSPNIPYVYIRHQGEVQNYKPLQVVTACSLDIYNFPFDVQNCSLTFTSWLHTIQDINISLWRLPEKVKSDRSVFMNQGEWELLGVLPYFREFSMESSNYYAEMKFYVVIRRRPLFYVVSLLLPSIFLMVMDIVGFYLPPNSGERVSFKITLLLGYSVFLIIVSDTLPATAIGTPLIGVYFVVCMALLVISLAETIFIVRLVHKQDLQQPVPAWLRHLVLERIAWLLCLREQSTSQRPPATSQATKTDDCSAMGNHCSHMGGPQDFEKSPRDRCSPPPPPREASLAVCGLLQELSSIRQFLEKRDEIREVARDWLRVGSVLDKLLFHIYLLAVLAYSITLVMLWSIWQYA

5-HT3 receptor [1] = settings: cited from earlier work
5-HT3 receptor [2] = settings: cited from earlier work; remark: listed apart in the source
[3] = target: nicotinic acetylcholine receptors; settings: read-out: IC50, block of nicotinic acetylcholine receptors; cited from earlier work
α7 nACh receptors = settings: cited from earlier work
5-HT3 receptors = settings: cited from earlier work

In the case of `NCCc1c[nH]c2ccc(O)cc12` [5-HT], the “Hill slope of agonist concentration-response curve” value (5-HT3A receptors) is reported as 2.06 ± 0.14 and the “desensitisation time constant τ of inward current” value (5-HT3A receptors) is reported as 42 ± 5 s.

For `CN1[C@@H]2C[C@@H](OC(=O)c3c[nH]c4ccccc34)C[C@H]1[C@@H]1O[C@@H]12` [SDZ-ICT 322], the pA2 (5-HT3 receptor [1]) is given as 10.6 and the pKd (5-HT3 receptor [2]) is given as 9.2.

For `CN1[C@@H]2C[C@@H](OC(=O)[C@H](CO)c3ccccc3)C[C@H]1[C@@H]1O[C@@H]12` [scopolamine], the IC50 [3] is given as 928 µM and the “expression of α7 nACh receptors” value (α7 nACh receptors) is given as “increases the expression”.

For `CN1C2CCC1CC(OC(=O)c1ccccc1)C2` (stereo not shown) [tropane benzoate], the “affinity at 5-HT3 receptors” value (5-HT3 receptors) is given as 63 nM.
